Measured values published in patent US9585871B2, “Method for treating and curing leishmaniosis using fexinidazole” (Merial Limited, priority 2013, dated 2017).
Where “and” joins values, the source holds several entries; their conditions need not be identical. Equal entries are not always repeated. Where two headings read alike, the source gives them in different places.

Tests used:
[1] = Multiple dosing study in dogs: systemic exposure (plasma) to fexinidazole and its metabolites; assay type: in vivo, dog; settings: for concentration at 0 h / concentration at 0.5 h / concentration at 1 h / concentration at 2 h / concentration at 4 h / concentration at 8 h / concentration at 24 h / Cmax / Tmax / AUC(0-t): dog, plasma; for concentration at 0 h / concentration at 0.5 h / concentration at 1 h / concentration at 2 h / concentration at 4 h / concentration at 8 h / concentration at 24 h: oral, read-out: Average plasma concentrations of fexinidazole; for concentration at 2 h: Day 1, 2 hours; for concentration at 4 h: Day 1, 4 hours; for concentration at 8 h: Day 1, 8 hours; for concentration at 24 h: Day 1, 24 hours; for Cmax / Tmax / AUC(0-t): po; for AUC(0-t): read-out: AUC0-t (last)
Description: In an embodiment, the fexinidazole may be administered to the canine as an aqueous oral suspension, comprising 5% TWEEN 80 and 0.5% Methyl cellulose 400 cP (METHOCEL). Provided in this format, fexinidazole suspensions of 5, 20, and 80 mg fexinidazole/mL may be prepared such that 10 mL of each concentration contains 50, 200, and 800 mg fexinidazole, respectively.
Moreover, inventors expect that a wide variety of dosing regimens are now available to the skilled person to achieve the necessary and sufficient fexinidazole plasma levels. For example, and as further outlined in the Examples below, any dosing regimen that produces substantially similar fexinidazole plasma levels, as compared to those levels produced by giving the dogs about 60 mg/kg/day for about twenty-eight days, is expected to substantially or completely eliminate the Leishmania parasites. Table 1 presents the systemic fexinidazole exposure following dosing of dogs with 50, 200, and 800 mg/kg/day.

[2] = Toxicology summary: maximum dose after oral administration, mice; assay type: in vivo
From the text: (§1) Toxicology summary. In mice and rats, the maximum fexinidazole (FEX) dose after oral administration is 10 g/kg of body weight. […] Finally, as regards PK, labeled FEX and its metabolites were excreted within 3 days in the feces (52-58%) and urine (36-40%).

[3] = Reproductive toxicity study, rabbits; assay type: in vivo; settings: oral 40 mg/kg for 13 days
From the text: as §1

L. infantum = experiment: Clinical study in dogs infected with L. infantum: IFAT antibody titers; assay type: in vivo; settings: Glucantime 100 mg/kg dNMA SC or Fexinidazole 60 mg/kg PO once daily Days 0-27
Description: In a clinical study, dogs infected with L. infantum were treated with meglumine antimoniate (GLUCANTIME®, Merial) as a positive control, or FEX (Table 5). Eight blocks of two animals were formed based antibody titers and biological scores. Six dogs in each group were naturally infected by housing them in an endemic area for two years and two dogs in each group were artificially infected by intravenous administration of a known quantity of parasites recovered from the spleen of an infected dog.
The first group (FEX) was compared to the second group, which was treated with 27 mg/kg GLUCANTIME (meglumine antimoniate, or 100 mg/kg of dNMA) “GLU”), over 28 days.
Variables. The Clinical Score is an additive score of various clinical signs (body condition, lymphadenopathy, splenomegaly, appetite, behavior, mucous membrane color, dermatopathology, ocular signs, digestive signs, arthropathy) evaluated before treatment and on Days 7, 14, 21, 28, 57, 184, 219, 254, 282, 310, 345, 400 and 436. The Overall Biological Score is an additive score based on the severity of changes in hematology/chemistry values (creatinine, urine protein/creatinine, Hct, globulin, ALAT), evaluated pretreatment and on Days 28, 57, and 181. The L. infantum immunofluorescent antibody titers (IFAT) were determined from samples collected before treatment and on Days 28, 57, and 181. Finally, quantitative PCR (qPCR) for L. infantum was conducted on spleen aspirates collected before treatment and on Days 28, 57, 142, 184, and 373.

[4] = system: Leishmania donovani amastigotes grown in macrophages; settings: Wyllie S et al., 2012; cited from earlier work
L. donovani = settings: mice; Wyllie, Sci Transl. Med 4, 119, 2012; cited from earlier work
[5] = 50 mg/kg/day, 50 mg/kg/day oral
[6] = 200 mg/kg/day, 200 mg/kg/day oral
[7] = female, 50 mg/kg/day, Female Dog, 50 mg/kg/day oral, D1, mean ± SD, n = 3
[8] = female, 50 mg/kg/day, Female Dog, 50 mg/kg/day oral, D14, mean ± SD, n = 3
[9] = female, 50 mg/kg/day, Female Dog, 50 mg/kg/day oral, D28, mean ± SD, n = 3
[10] = female, 200 mg/kg/day, Female Dog, 200 mg/kg/day oral, D1, mean ± SD, n = 3
[11] = female, 200 mg/kg/day, Female Dog, 200 mg/kg/day oral, D14, mean ± SD, n = 3
[12] = female, 200 mg/kg/day, Female Dog, 200 mg/kg/day oral, D28, mean ± SD, n = 3
[13] = female, 800 mg/kg/day, Female Dog, 800 mg/kg/day oral, D1, mean ± SD, n = 5
[14] = female, 800 mg/kg/day, Female Dog, 800 mg/kg/day oral, D14, mean ± SD, n = 5
[15] = female, 800 mg/kg/day, Female Dog, 800 mg/kg/day oral, D28, mean ± SD, n = 5
[16] = male, 50 mg/kg/day, Male Dog, 50 mg/kg/day oral, D1, mean ± SD, n = 3
[17] = male, 50 mg/kg/day, Male Dog, 50 mg/kg/day oral, D14, mean ± SD, n = 3
[18] = male, 50 mg/kg/day, Male Dog, 50 mg/kg/day oral, D28, mean ± SD, n = 3
[19] = male, 200 mg/kg/day, Male Dog, 200 mg/kg/day oral, D1, mean ± SD, n = 3
[20] = male, 200 mg/kg/day, Male Dog, 200 mg/kg/day oral, D14, mean ± SD, n = 3
[21] = male, 200 mg/kg/day, Male Dog, 200 mg/kg/day oral, D28, mean ± SD, n = 3
[22] = male, 800 mg/kg/day, Male Dog, 800 mg/kg/day oral, D1, mean ± SD, n = 5
[23] = male, 800 mg/kg/day, Male Dog, 800 mg/kg/day oral, D14, mean ± SD, n = 5
[24] = male, 800 mg/kg/day, Male Dog, 800 mg/kg/day oral, D28, mean ± SD, n = 5

## CSc1ccc(OCc2ncc([N+](=O)[O-])n2C)cc1 [Fexinidazole, fexinidazole]
[1]; 50 mg/kg/day oral, Day 14, 2 hours
  Average plasma concentrations of fexinidazole: 26.8 ng/mL
[1]; 50 mg/kg/day oral, Day 14, 4 hours
  Average plasma concentrations of fexinidazole: ~9 ng/mL
[1]; 50 mg/kg/day oral, Day 14, 8 hours
  Average plasma concentrations of fexinidazole: <5 ng/mL
[1]; 50 mg/kg/day oral, Day 14, 24 hours
  Average plasma concentrations of fexinidazole: <5 ng/mL
[1]; 50 mg/kg/day oral, Day 28, 0 hours
  Average plasma concentrations of fexinidazole: <5 ng/mL
[1]; 50 mg/kg/day oral, Day 28, 1 hour
  Average plasma concentrations of fexinidazole: 28.3 ng/mL
[1]; 50 mg/kg/day oral, Day 28, 2 hours
  Average plasma concentrations of fexinidazole: 17.5 ng/mL
[1]; 50 mg/kg/day oral, Day 28, 4 hours
  Average plasma concentrations of fexinidazole: 14.3 ng/mL
[1]; 50 mg/kg/day oral, Day 28, 8 hours
  Average plasma concentrations of fexinidazole: ~5 ng/mL
[1]; 50 mg/kg/day oral, Day 28, 24 hours
  Average plasma concentrations of fexinidazole: <5 ng/mL
[1]; 200 mg/kg/day oral, Day 14, 2 hours
  Average plasma concentrations of fexinidazole: 70.2 ng/mL
[1]; 200 mg/kg/day oral, Day 14, 4 hours
  Average plasma concentrations of fexinidazole: 27.6 ng/mL
[1]; 200 mg/kg/day oral, Day 14, 8 hours
  Average plasma concentrations of fexinidazole: 13.5 ng/mL
[1]; 200 mg/kg/day oral, Day 14, 24 hours
  Average plasma concentrations of fexinidazole: 10.2 ng/mL
[1]; 200 mg/kg/day oral, Day 28, 0 hours
  Average plasma concentrations of fexinidazole: <5 ng/mL
[1]; 200 mg/kg/day oral, Day 28, 1 hour
  Average plasma concentrations of fexinidazole: 65.4 ng/mL
[1]; 200 mg/kg/day oral, Day 28, 2 hours
  Average plasma concentrations of fexinidazole: 44.6 ng/mL
[1]; 200 mg/kg/day oral, Day 28, 4 hours
  Average plasma concentrations of fexinidazole: 23.5 ng/mL
[1]; 200 mg/kg/day oral, Day 28, 8 hours
  Average plasma concentrations of fexinidazole: 12.4 ng/mL
[1]; 200 mg/kg/day oral, Day 28, 24 hours
  Average plasma concentrations of fexinidazole: 12.4 ng/mL
[1]; 50 mg/kg/day, 50 mg/kg/day oral, Day 1, 0 hours
  concentration at 0 h: < 5 ng/mL
[1]; 50 mg/kg/day, 50 mg/kg/day oral, Day 1, 0.5 hours
  concentration at 0.5 h: 34.5 ng/mL
[1]; 50 mg/kg/day, 50 mg/kg/day oral, Day 1, 1 hour
  concentration at 1 h: 30.3 ng/mL
[1]; [5]
  concentration at 2 h: 23.8 ng/mL
  concentration at 4 h: 12.6 ng/mL
  concentration at 8 h: < 5 ng/mL
  concentration at 24 h: < 5 ng/mL
[1]; 50 mg/kg/day, 50 mg/kg/day oral, Day 14, 0 hours
  concentration at 0 h: < 5 ng/mL
[1]; 50 mg/kg/day, 50 mg/kg/day oral, Day 14, 0.5 hours
  concentration at 0.5 h: 28.8 ng/mL
[1]; 50 mg/kg/day, 50 mg/kg/day oral, Day 14, 1 hour
  concentration at 1 h: 29.5 ng/mL
[1]; 200 mg/kg/day, 200 mg/kg/day oral, Day 1, 0 hours
  concentration at 0 h: < 5 ng/mL
[1]; 200 mg/kg/day, 200 mg/kg/day oral, Day 1, 0.5 hours
  concentration at 0.5 h: 52.1 ng/mL
[1]; 200 mg/kg/day, 200 mg/kg/day oral, Day 1, 1 hour
  concentration at 1 h: 61.3 ng/mL
[1]; [6]
  concentration at 2 h: 45.9 ng/mL
  concentration at 4 h: 22.6 ng/mL
  concentration at 8 h: 9.9 ng/mL
  concentration at 24 h: 13 ng/mL
[1]; 200 mg/kg/day, 200 mg/kg/day oral, Day 14, 0 hours
  concentration at 0 h: 16.6 ng/mL
[1]; 200 mg/kg/day, 200 mg/kg/day oral, Day 14, 0.5 hours
  concentration at 0.5 h: 53.4 ng/mL
[1]; 200 mg/kg/day, 200 mg/kg/day oral, Day 14, 1 hour
  concentration at 1 h: 63.2 ng/mL
[1]; dogs, after single and repeated administration
  Metabolism: extensively metabolized to the sulfone and sulfoxide derivatives
[1]; [7]
  Cmax: 42.4 ± 10.6 ng/mL
  Tmax: 1 ± 0.87 h
  AUC(0-t): 237 ± 105 ng·h/mL
[1]; [8]
  Cmax: 41.9 ± 2.2 ng/mL
  Tmax: 1.67 ± 0.58 h
  AUC(0-t): 246 ± 117 ng·h/mL
[1]; [9]
  Cmax: 36.3 ± 15.1 ng/mL
  Tmax: 1 h
  AUC(0-t): 87.1 ± 38.1 ng·h/mL
[1]; [10]
  Cmax: 84.1 ± 36.7 ng/mL
  Tmax: 1 h
  AUC(0-t): 454 ± 119 ng·h/mL
[1]; [11]
  Cmax: 77.7 ± 50.8 ng/mL
  Tmax: 2 h
  AUC(0-t): 443 ± 217 ng·h/mL
[1]; [12]
  Cmax: 73 ± 12 ng/mL
  Tmax: 1 h
  AUC(0-t): 377 ± 83.5 ng·h/mL
[1]; [13]
  Cmax: 184 ± 75.6 ng/mL
  Tmax: 1.2 ± 0.45 h
  AUC(0-t): 895 ± 437 ng·h/mL
[1]; [14]
  Cmax: 152 ± 44 ng/mL
  Tmax: 1.4 ± 0.55 h
  AUC(0-t): 1170 ± 309 ng·h/mL
[1]; [15]
  Cmax: 101 ± 47.1 ng/mL
  Tmax: 1 h
  AUC(0-t): 956 ± 378 ng·h/mL
[1]; [16]
  Cmax: 31.2 ± 12.4 ng/mL
  Tmax: 0.5 h
  AUC(0-t): 140 ± 147 ng·h/mL
[1]; [17]
  Cmax: 26.5 ± 13 ng/mL
  Tmax: 0.5 h
  AUC(0-t): 52.1 ± 29.4 ng·h/mL
[1]; [18]
  Cmax: 20.3 ± 7.89 ng/mL
  Tmax: 1 h
  AUC(0-t): 124 ± 67 ng·h/mL
[1]; [19]
  Cmax: 54.9 ± 10.8 ng/mL
  Tmax: 1 ± 0.87 h
  AUC(0-t): 419 ± 61.4 ng·h/mL
[1]; [20]
  Cmax: 78.1 ± 23.5 ng/mL
  Tmax: 1 ± 0.87 h
  AUC(0-t): 452 ± 41.1 ng·h/mL
[1]; [21]
  Cmax: 57.9 ± 12.5 ng/mL
  Tmax: 1 h
  AUC(0-t): 395 ± 15.8 ng·h/mL
[1]; [22]
  Cmax: 100 ± 21.2 ng/mL
  Tmax: 1.1 ± 0.55 h
  AUC(0-t): 776 ± 182 ng·h/mL
[1]; [23]
  Cmax: 128 ± 56.9 ng/mL
  Tmax: 1 h
  AUC(0-t): 929 ± 268 ng·h/mL
[1]; [24]
  Cmax: 86.2 ± 38.5 ng/mL
  Tmax: 1.2 ± 0.4 h
  AUC(0-t): 736 ± 141 ng·h/mL
[2]
  maximum dose after oral administration: 10 g/kg of body weight
[3]
  embryotoxic effects: no embryotoxic effects
L. infantum; Day 28, individual dogs
  L. infantum IFAT Antibody Titers: 1/80
L. infantum; Day 57, individual dogs
  L. infantum IFAT Antibody Titers: 1/640 (2×) and 1/320 and 1/80
L. infantum; Day 181, individual dogs
  L. infantum IFAT Antibody Titers: 1/640 (2×) and 1/320 and 1/80
[4]
  activity against Leishmania donovani amastigotes grown in macrophages: inactive
L. donovani
  suppression of infection due to L. donovani: able to suppress infection
